In one assay the target is SARS-CoV-2 3CL^pro (Severe acute respiratory syndrome coronavirus 2, UniProt P0DTD1). Description: biochemical. Format: biochemical. The settings on record: for time dependence of the level of inhibition: incubation time 0-60 min, inhibitor close to its IC50 concentration (Fig. S4).
Another assay has as its target 3CL^pro (Severe acute respiratory syndrome coronavirus 2, UniProt P0DTD1). Description: LC-MS detection of 3CLpro-inhibitor covalent adducts. Format: binding, SARS-CoV-2.
The next assay concerns SARS-CoV 3CL^pro. The settings on record: cited from earlier work.

SMILES strings stand for the structures.

Usually inhibition stands for the share of the control response that was lost under treatment. Read a high inhibition as strong suppression. The IC50 is the concentration that gives 50% inhibition.

At SARS-CoV-2 3CL^pro, `C=CS(=O)(=O)N(c1ccc(C(C)(C)C)cc1)[C@@H](C(=O)N[C@@H](C)c1ccccc1)c1cccnc1` (mixture of isomers) [14g, (S)- and (R)-2-(N-(4-(tert-butyl)phenyl)vinylsulfonamido)-N-((S)-1-phenylethyl)-2-(pyridin-3-yl)acetamide] yielded an inhibition at 50 µM above 95%. Also, at SARS-CoV-2 3CL^pro (ratio of IC50), the “times more potent than diastereomer 14h” value is “approximately 20 times”.
On SARS-CoV-2 3CL^pro, `C=CS(=O)(=O)N(c1ccc(C(C)(C)C)cc1)[C@H](C(=O)N[C@@H](C)c1ccccc1)c1cccnc1` (mixture of isomers) [14h, (S)- and (R)-2-(N-(4-(tert-butyl)phenyl)vinylsulfonamido)-N-((S)-1-phenylethyl)-2-(pyridin-3-yl)acetamide] yielded an inhibition at 50 µM above 95%.
For the molecule `C=CC(=O)N(c1ccc(C(C)(C)C)cc1)C(C(=O)NC1CCCCC1)c1cccnc1` (stereo not drawn) [6a, N-(4-(tert-butyl)phenyl)-N-(2-(cyclohexylamino)-2-oxo-1-(pyridin-3-yl)ethyl) acrylamide], the IC50 on SARS-CoV-2 3CL^pro came to 11.1 ± 1.5 µM.
For the molecule `C=CS(=O)(=O)N(c1ccc(C(C)(C)C)cc1)C(C(=O)NC1CCCCC1)c1cccnc1` (stereo not drawn) [14a, 2-(N-(4-(tert-butyl)phenyl)vinylsulfonamido)-N-cyclohexyl-2-(pyridin-3-yl)acetamide], at 3CL^pro, the “presence of 3CLpro-inhibitor adduct by LC-MS” value is “confirmed”. Moreover, on SARS-CoV-2 3CL^pro, half-maximal inhibition (IC50) required 0.5 µM and the “time dependence of the level of inhibition” value is listed as “increased with incubation time”.
`CC(C)(C)c1ccc(N(C(=O)CCl)C(C(=O)NC2CCCCC2)c2cccnc2)cc1` (stereo not drawn) [16a, N-(4-(tert-butyl)phenyl)-2-chloro-N-(2-(cyclohexylamino)-2-oxo-1-(pyridin-3-yl)ethyl) acetamide]: at 3CL^pro, the “presence of 3CLpro-inhibitor adduct by LC-MS” value is given as “confirmed”. Besides, the “time dependence of the level of inhibition” value on SARS-CoV-2 3CL^pro is recorded as “increased with incubation time”.
Consider `CC(C)(C)c1ccc(N(C(=O)C#CCO)C(C(=O)NC2CCCCC2)c2cccnc2)cc1` (stereo not drawn) [23a, N-(4-(tert-butyl)phenyl)-N-(2-(cyclohexylamino)-2-oxo-1-(pyridin-3-yl)ethyl)-4-hydroxybut-2-ynamide], for which the “improvement in potency over alkynylamide analogue 13a” value on SARS-CoV-2 3CL^pro (ratio of IC50) was around 10 fold.
Regarding `CC(C)(C)NC(=O)C(c1cccnc1)N(C(=O)c1ccco1)c1ccc(C(C)(C)C)cc1` (stereo not drawn) [ML188, N-(4-(tert-butyl)phenyl)-N-(2-(tert-butylamino)-2-oxo-1-(pyridin-3-yl)ethyl)furan-2-carboxamide], in the assay on SARS-CoV 3CL^pro, the IC50 is […].
With `CC(C)(C)c1ccc(N(C(=O)c2c[nH]cn2)C(C(=O)NC2CCCCC2)c2cccnc2)cc1` (stereo not drawn) [X77, N-(4-(tert-butyl)phenyl)-N-(2-(cyclohexylamino)-2-oxo-1-(pyridin-3-yl)ethyl)-1H-imidazole-5-carboxamide], the IC50 in the assay on SARS-CoV 3CL^pro is 3.4 µM.

(Values after PMC8665847 (European Journal of Medicinal Chemistry, 2021).)
